Measurements: patent US7598382B2, “Aryl substituted imidazoquinolines” (Coley Pharmaceutical Group, Inc., priority 2002, dated 2009)

Assays:
[1] = system: tumor necrosis factor-α (TNF-α) production in mouse macrophage cell line Raw 264.7; assay: TNF-α inhibition in mouse cells, single concentration assay (LPS-stimulated Raw 264.7); type: cell-based; details: Raw 264.7 cells stimulated by LPS (EC70), compound 5 μM (single concentration) or 0.03-10 μM (dose response), 18 to 24 hours, ELISA
Method: The compounds of Formulas I and II are useful as immune response modifiers (IRMs) due to their ability to modulate cytokine biosynthesis (e.g., induce or inhibit the biosynthesis or production of one or more cytokines) and otherwise modulate the immune response when administered to animals. Compounds can be tested per the test procedures described in the Examples Section. Compounds can be tested for induction of cytokine biosynthesis by incubating human PBMC in a culture with the compound(s) at a concentration range of 30 to 0.014 μM and analyzing for interferon (α) or tumor necrosis factor (α) in the culture supernatant. Compounds can be tested for inhibition of cytokine biosynthesis by incubating mouse macrophage cell line Raw 264.7 in a culture with the compound(s) at a single concentration of, for example, 5 μM and analyzing for tumor necrosis factor (α) in the culture supernatant. Compounds can be further tested for dose response by running the test at several compound concentrations, for example, 0.03, 0.1, 0.3, 1, 3, 5, and 10 μM. The ability to modulate cytokine biosynthesis makes the compounds useful in the treatment of a variety of conditions such as viral diseases, neoplastic diseases, and autoimmune diseases that are responsive to such changes in the immune response.
The mouse macrophage cell line Raw 264.7 is used to assess the ability of compounds to inhibit tumor necrosis factor-α (TNF-α) production upon stimulation by lipopolysaccharide (LPS).
Raw cells (ATCC) are harvested by gentle scraping and then counted. The cell suspension is brought to 3×10^5 cells/mL in RPMI with 10% fetal bovine serum (FBS). […]
The compounds are solubilized in dimethyl sulfoxide (DMSO). […] LPS (Lipopolysaccaride from Salmonella typhimurium, Sigma-Aldrich) is diluted with colorless RPMI to the EC70 concentration as measured by a dose response assay. […]
Following the incubation the supernatant is removed with a pipet. TNF-α concentration is determined by ELISA using a mouse TNF-α kit (from Biosource International, Camarillo, Calif.). […]

CC(C)Cn1cnc2c(N)nc3ccc(-c4cccnc4)cc3c21 [Example 14, 1-Isobutyl-8-(pyridin-3-yl)-1H-imidazo[4,5-c]quinolin-4-amine]
melting point: 244 to 246 °C
modulate cytokine biosynthesis by inhibiting production of tumor necrosis factor α (TNF-α) [1]: inhibiting production of tumor necrosis factor α (TNF-α)

CC(C)Cn1cnc2c(N)nc3ccc(-c4ccccc4)cc3c21 [Example 15, 1-Isobutyl-8-phenyl-1H-imidazo[4,5-c]quinolin-4-amine]
melting point: 203 to 204 °C
modulate cytokine biosynthesis by inhibiting production of tumor necrosis factor α (TNF-α) [1]: inhibiting production of tumor necrosis factor α (TNF-α)

CC(C)Cn1cnc2c(N)nc3ccc(-n4cccc4)cc3c21 [Example 481, 1-(2-Methylpropyl)-8-(1-pyrrolyl)-1H-imidazo[4,5-c]quinolin-4-amine]
melting point: 227.5 to 231.5 °C
modulate cytokine biosynthesis by inhibiting production of tumor necrosis factor α (TNF-α) [1]: inhibiting production of tumor necrosis factor α (TNF-α)

CCOCc1nc2c(N)nc3c(-c4cccc(C(=O)N5CCOCC5)c4)cccc3c2n1CC(C)(C)O [Example 486, {3-[4-Amino-2-ethoxymethyl-1-(2-hydroxy-2-methylpropyl)-1H-imidazo[4,5-c]quinolin-6-yl]phenyl}morpholin-4-ylmethanone]
melting point: 164 to 166 °C

CCOCc1nc2c(N)nc3cc(-c4cccnc4)ccc3c2n1C[C@@H]1COC(C)(C)O1 [Example 487, (R)-1-[(2,2-Dimethyl-1,3-dioxolan-4-yl)methyl]-2-ethoxymethyl-7-(pyridin-3-yl)-1H-imidazo[4,5-c]quinolin-4-amine]
melting point: 155 to 156 °C

CCOCc1nc2c(N)nc3cc(-c4cccnc4)ccc3c2n1C[C@@H](O)CO [Example 488, (R)-3-[4-Amino-2-ethoxymethyl-7-(pyridin-3-yl)-1H-imidazo[4,5-c]quinolin-1-yl]propane-1,2-diol]
melting point: 202 to 204 °C

CCOCc1nc2c(N)nc3cc(-c4cccnc4)ccc3c2n1C[C@H]1COC(C)(C)O1 [Example 489, (S)-1-[(2,2-Dimethyl-1,3-dioxolan-4-yl)methyl]-2-ethoxymethyl-7-(pyridin-3-yl)-1H-imidazo[4,5-c]quinolin-4-amine]
melting point: 157 to 158 °C

CCOCc1nc2c(N)nc3cc(-c4cccnc4)ccc3c2n1C[C@H](O)CO [Example 490, (S)-3-[4-Amino-2-ethoxymethyl-7-(pyridin-3-yl)-1H-imidazo[4,5-c]quinolin-1-yl]propane-1,2-diol]
melting point: 203 to 204 °C

CCOCc1nc2c(N)nc3cc(-c4cccnc4)ccc3c2n1CC1CCCCN1S(C)(=O)=O (centres unmarked) [Example 492, 2-Ethoxymethyl-1-{[1-(methanesulfonyl)piperidin-2-yl]methyl}-7-(pyridin-3-yl)-1H-imidazo[4,5-c]quinolin-4-amine]
melting point: 152 to 154 °C

CCOCc1nc2c(N)nc3cc(-c4cccnc4)ccc3c2n1Cc1ccc(CNS(C)(=O)=O)cc1 [Example 493, N-{4-[4-Amino-2-ethoxymethyl-7-(pyridin-3-yl)-1H-imidazo[4,5-c]quinolin-1-ylmethyl]benzyl}methanesulfonamide]
melting point: 228 to 229 °C

CCOCc1nc2c(N)nc3cc(-c4cccnc4)ccc3c2n1CCCCNC(=O)c1ccc(C(OCCN(C)C)c2ccccc2)cc1 (centres unmarked) [Example 494, N-[4-(4-Amino-2-ethoxymethyl-7-(pyridin-3-yl)imidazo[4,5-c]quinolin-1-yl)butyl]-4-[(2-dimethylaminoethoxy)phenylmethyl]benzamide]
melting point: 157 to 161 °C
